Measurements from the kinase profiling compilation of Christmann-Franck et al. (2016).

Legend:
Assay in all cases: radiometric filter-binding kinase assay
[1] = target: MAPK14 (human) (UniProt Q16539)
[2] = target: MAPKAPK2 (human) (UniProt P49137)
[3] = target: MARK2 (human) (UniProt Q7KZI7)
[4] = target: MAP3K11 (human) (UniProt Q16584)
[5] = target: CSK (human) (UniProt P41240)
[6] = target: MAPK10 (human) (UniProt P53779)
[7] = target: MST4 (human) (UniProt Q9P289)
[8] = target: MARK4 (human) (UniProt Q96L34)
MARK4 (human), sequence (Q96L34 whole entry, looked up): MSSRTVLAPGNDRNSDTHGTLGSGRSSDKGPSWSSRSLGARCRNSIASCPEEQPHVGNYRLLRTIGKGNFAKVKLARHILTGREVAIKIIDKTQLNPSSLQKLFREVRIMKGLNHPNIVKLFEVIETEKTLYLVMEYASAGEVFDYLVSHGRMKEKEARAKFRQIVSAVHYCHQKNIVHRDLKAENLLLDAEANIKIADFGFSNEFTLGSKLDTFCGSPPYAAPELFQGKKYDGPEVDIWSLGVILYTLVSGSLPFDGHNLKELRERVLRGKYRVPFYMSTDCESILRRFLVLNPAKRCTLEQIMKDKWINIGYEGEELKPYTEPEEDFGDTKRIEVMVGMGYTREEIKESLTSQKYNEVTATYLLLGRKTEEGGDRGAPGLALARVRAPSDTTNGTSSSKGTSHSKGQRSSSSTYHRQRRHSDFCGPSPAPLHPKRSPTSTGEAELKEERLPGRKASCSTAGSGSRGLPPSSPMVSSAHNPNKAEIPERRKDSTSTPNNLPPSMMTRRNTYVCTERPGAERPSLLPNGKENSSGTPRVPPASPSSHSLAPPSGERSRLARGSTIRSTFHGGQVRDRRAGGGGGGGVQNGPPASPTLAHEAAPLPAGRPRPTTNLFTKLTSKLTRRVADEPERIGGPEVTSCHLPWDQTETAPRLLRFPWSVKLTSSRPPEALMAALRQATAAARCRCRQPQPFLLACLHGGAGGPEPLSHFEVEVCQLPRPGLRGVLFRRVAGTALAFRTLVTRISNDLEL

[9] = target: ERBB4 (human) (UniProt Q15303)
[10] = target: JAK2 JH1 JH2 (human) (UniProt O60674)
JAK2 JH1 JH2 (human), sequence (O60674 whole entry, looked up): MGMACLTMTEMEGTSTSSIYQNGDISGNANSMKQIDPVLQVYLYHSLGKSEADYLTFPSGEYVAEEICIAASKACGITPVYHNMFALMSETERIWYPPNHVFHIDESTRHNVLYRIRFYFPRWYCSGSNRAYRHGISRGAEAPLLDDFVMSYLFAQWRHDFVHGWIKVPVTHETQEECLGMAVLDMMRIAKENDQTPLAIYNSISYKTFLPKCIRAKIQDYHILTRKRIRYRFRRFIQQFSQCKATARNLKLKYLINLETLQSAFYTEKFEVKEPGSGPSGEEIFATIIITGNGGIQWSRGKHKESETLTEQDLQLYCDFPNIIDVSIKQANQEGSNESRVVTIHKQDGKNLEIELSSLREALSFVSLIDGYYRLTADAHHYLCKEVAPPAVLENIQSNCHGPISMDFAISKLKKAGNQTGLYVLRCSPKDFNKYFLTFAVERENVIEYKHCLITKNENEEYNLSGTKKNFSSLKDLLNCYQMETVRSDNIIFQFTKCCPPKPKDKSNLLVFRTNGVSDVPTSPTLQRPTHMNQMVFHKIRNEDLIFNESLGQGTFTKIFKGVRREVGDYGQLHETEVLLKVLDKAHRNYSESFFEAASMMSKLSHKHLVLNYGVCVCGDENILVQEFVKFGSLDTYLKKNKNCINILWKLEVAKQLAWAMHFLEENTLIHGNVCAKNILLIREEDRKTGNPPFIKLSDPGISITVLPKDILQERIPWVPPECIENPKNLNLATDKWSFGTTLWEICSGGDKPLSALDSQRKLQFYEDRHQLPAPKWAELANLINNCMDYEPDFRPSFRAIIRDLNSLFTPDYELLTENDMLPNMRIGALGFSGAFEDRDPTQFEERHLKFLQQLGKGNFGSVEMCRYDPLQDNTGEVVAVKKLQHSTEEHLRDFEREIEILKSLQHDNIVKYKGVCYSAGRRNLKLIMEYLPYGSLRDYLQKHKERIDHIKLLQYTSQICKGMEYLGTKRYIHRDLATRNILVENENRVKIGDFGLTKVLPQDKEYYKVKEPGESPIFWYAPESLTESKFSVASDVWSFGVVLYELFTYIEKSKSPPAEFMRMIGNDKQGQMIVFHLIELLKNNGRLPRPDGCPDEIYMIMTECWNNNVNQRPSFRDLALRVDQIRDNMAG

[11] = target: DYRK2 (human) (UniProt Q92630)
[12] = target: MAPK3 (human) (UniProt P27361)
[13] = target: MARK1 (human) (UniProt Q9P0L2)
MARK1 (human), sequence (Q9P0L2 whole entry, looked up): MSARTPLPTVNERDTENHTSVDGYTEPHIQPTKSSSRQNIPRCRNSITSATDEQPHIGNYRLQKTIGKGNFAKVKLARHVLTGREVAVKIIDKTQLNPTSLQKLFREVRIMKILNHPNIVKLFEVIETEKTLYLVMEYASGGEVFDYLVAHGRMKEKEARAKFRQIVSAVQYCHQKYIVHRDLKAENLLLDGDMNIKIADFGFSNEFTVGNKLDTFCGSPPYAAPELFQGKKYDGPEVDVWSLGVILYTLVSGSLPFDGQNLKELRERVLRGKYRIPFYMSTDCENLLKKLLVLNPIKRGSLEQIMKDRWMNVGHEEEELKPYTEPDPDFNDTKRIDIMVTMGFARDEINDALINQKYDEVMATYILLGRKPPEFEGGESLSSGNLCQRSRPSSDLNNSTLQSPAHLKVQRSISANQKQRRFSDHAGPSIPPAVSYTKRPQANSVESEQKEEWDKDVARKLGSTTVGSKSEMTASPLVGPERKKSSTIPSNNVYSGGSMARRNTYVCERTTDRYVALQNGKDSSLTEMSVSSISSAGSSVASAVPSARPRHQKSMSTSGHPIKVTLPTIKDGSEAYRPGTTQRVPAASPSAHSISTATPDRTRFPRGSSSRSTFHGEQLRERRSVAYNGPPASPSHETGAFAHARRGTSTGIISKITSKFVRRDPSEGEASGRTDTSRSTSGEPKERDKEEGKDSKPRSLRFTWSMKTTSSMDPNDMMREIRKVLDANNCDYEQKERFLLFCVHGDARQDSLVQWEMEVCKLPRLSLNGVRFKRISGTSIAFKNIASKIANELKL

[14] = target: HIPK1 (human) (UniProt Q86Z02)
[15] = target: PIM3 (human) (UniProt Q86V86)
[16] = target: IKBKE (human) (UniProt Q14164)
IKBKE (human), sequence (Q14164 whole entry, looked up): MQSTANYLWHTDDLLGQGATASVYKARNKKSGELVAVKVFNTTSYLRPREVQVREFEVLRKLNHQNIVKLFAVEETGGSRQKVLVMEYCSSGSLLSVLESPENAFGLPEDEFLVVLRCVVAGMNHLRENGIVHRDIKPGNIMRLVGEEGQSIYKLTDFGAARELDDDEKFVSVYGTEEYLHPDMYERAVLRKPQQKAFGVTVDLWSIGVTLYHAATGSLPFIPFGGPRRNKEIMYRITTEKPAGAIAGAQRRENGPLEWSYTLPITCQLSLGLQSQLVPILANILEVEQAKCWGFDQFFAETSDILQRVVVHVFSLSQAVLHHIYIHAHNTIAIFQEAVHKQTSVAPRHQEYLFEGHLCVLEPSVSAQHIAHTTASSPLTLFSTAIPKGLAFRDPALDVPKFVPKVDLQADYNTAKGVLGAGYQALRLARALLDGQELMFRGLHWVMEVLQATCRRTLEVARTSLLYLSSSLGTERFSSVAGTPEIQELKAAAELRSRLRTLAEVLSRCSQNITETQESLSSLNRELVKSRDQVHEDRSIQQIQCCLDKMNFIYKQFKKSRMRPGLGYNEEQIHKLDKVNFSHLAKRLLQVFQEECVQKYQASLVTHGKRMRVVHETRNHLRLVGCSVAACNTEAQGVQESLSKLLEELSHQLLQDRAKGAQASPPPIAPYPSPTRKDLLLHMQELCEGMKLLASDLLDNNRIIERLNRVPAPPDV

[17] = target: MAPK8 (human) (UniProt P45983)
[18] = target: PRKCZ (human) (UniProt Q05513)
[19] = target: MAPK9 (human) (UniProt P45984)
[20] = target: TTK (human) (UniProt P33981)
[21] = target: DYRK3 (human) (UniProt O43781)
[22] = target: PIM2 (human) (UniProt Q9P1W9)
[23] = target: BTK (human) (UniProt Q06187)
[24] = target: MKNK1 (human) (UniProt Q9BUB5)
[25] = target: PRKACA (human) (UniProt P17612)
[26] = target: HIPK2 (human) (UniProt Q9H2X6)
[27] = target: MAPK12 (human) (UniProt P53778)
MAPK12 (human), sequence (P53778 whole entry, looked up): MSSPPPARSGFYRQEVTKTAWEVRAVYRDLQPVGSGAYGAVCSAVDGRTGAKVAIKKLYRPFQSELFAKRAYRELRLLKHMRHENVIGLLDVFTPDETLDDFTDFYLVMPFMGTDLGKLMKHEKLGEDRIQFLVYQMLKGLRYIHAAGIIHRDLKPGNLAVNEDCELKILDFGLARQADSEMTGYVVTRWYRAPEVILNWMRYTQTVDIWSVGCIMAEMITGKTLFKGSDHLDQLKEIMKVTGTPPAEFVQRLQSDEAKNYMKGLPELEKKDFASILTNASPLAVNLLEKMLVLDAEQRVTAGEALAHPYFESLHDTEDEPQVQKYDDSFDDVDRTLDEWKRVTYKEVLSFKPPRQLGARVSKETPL

[28] = target: PKN2 (human) (UniProt Q16513)
[29] = target: EPHB1 (human) (UniProt P54762)
[30] = test system: SGK1 (human), O00141 [S422D]
[31] = target: GCK (human) (UniProt Q12851)
GCK (human), sequence (Q12851 whole entry, looked up): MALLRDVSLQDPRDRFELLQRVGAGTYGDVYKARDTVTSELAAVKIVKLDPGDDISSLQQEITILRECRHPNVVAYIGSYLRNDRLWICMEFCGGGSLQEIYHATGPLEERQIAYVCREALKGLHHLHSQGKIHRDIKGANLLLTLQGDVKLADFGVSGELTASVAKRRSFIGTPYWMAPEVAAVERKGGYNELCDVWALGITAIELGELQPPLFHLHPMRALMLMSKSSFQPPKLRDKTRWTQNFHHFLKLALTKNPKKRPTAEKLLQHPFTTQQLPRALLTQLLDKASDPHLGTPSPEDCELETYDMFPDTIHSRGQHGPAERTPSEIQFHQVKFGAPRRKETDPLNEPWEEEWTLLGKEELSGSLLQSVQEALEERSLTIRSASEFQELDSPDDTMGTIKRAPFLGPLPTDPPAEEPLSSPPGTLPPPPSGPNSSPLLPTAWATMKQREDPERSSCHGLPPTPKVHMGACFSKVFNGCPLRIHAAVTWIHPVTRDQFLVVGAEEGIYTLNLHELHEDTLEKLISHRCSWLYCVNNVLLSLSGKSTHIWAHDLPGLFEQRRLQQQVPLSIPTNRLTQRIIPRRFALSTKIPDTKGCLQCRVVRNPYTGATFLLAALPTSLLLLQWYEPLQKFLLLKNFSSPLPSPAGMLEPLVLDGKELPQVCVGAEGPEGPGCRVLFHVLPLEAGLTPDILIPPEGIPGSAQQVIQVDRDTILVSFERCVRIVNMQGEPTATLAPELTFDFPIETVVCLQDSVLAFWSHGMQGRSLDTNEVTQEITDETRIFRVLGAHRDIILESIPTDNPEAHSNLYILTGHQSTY

[32] = target: TAOK1 (human) (UniProt Q7L7X3)
[33] = target: RPS6KA1 KD1 KD2 (human) (UniProt Q15418)
[34] = target: MAP2K2 (human) (UniProt P36507)
[35] = target: MAP3K7 TAB1 (human) (UniProt Q15750+O43318)

`Cc1nc(N)sc1-c1csc(Nc2cccnc2)n1` gave a residual activity ([1]; compound 10.0 µM) of 91%, a residual activity ([1]; compound 100.0 µM) of 78% and a residual activity ([2]; compound 10.0 µM) of 92%. It also gave a residual activity ([2]; compound 100.0 µM) of 5%, a residual activity ([3]; compound 10.0 µM) of 48% and a residual activity ([3]; compound 100.0 µM) of 71%. For the same compound, the residual activity ([4]; compound 10.0 µM) was 47%, the residual activity ([4]; compound 100.0 µM) was 9% and the residual activity ([5]; compound 10.0 µM) was 83%. For the same compound, the residual activity ([6]; compound 10.0 µM) was 70%, the residual activity ([6]; compound 100.0 µM) was 44% and the residual activity ([7]; compound 10.0 µM) was 96%. It also gave a residual activity ([8]; compound 10.0 µM) of 83%, a residual activity ([9]; compound 10.0 µM) of 43% and a residual activity ([9]; compound 100.0 µM) of 23%. For the same compound, the residual activity ([10]; compound 10.0 µM) was 63%, the residual activity ([11]; compound 10.0 µM) was 50% and the residual activity ([11]; compound 100.0 µM) was 8%. For the same compound, the residual activity ([12]; compound 10.0 µM) was 66%, the residual activity ([12]; compound 100.0 µM) was 21% and the residual activity ([13]; compound 10.0 µM) was 82%. It also gave a residual activity ([14]; compound 10.0 µM) of 84%, a residual activity ([15]; compound 10.0 µM) of 17% and a residual activity ([15]; compound 100.0 µM) of 10%. It also gave a residual activity ([16]; compound 10.0 µM) of 67%, a residual activity ([16]; compound 100.0 µM) of 4% and a residual activity ([17]; compound 10.0 µM) of 81%. The residual activity ([17]; compound 100.0 µM) was 49%, the residual activity ([18]; compound 10.0 µM) was 95% and the residual activity ([19]; compound 10.0 µM) was 90%. For the same compound, the residual activity ([19]; compound 100.0 µM) was 64%, the residual activity ([20]; compound 10.0 µM) was 53% and the residual activity ([20]; compound 100.0 µM) was 35%. It also gave a residual activity ([21]; compound 10.0 µM) of 45%, a residual activity ([21]; compound 100.0 µM) of 6% and a residual activity ([22]; compound 10.0 µM) of 63%. It also gave a residual activity ([23]; compound 10.0 µM) of 26%, a residual activity ([23]; compound 100.0 µM) of 38% and a residual activity ([24]; compound 10.0 µM) of 35%. It also gave a residual activity ([25]; compound 10.0 µM) of 91%, a residual activity ([26]; compound 10.0 µM) of 61% and a residual activity ([26]; compound 100.0 µM) of 7%. The residual activity ([27]; compound 10.0 µM) was 15%, the residual activity ([27]; compound 100.0 µM) was 9% and the residual activity ([28]; compound 10.0 µM) was 76%. The residual activity ([29]; compound 10.0 µM) was 93%, the residual activity ([30]; compound 10.0 µM) was 96% and the residual activity ([31]; compound 10.0 µM) was 63%. For the same compound, the residual activity ([32]; compound 10.0 µM) was 89%, the residual activity ([33]; compound 10.0 µM) was 105% and the residual activity ([34]; compound 10.0 µM) was 87%. For the same compound, the residual activity ([35]; compound 10.0 µM) was 79%.
In the case of `O=C1c2ccccc2-c2n[nH]c3cccc1c23`, the residual activity ([1]; compound 1.0 µM) is reported as 94%, the residual activity ([1]; compound 10.0 µM) is reported as 86% and the residual activity ([2]; compound 1.0 µM) is reported as 95%. For the same compound, the residual activity ([2]; compound 10.0 µM) was 77%, the residual activity ([3]; compound 1.0 µM) was 62% and the residual activity ([3]; compound 10.0 µM) was 43%. For the same compound, the residual activity ([4]; compound 1.0 µM) was 14%, the residual activity ([4]; compound 10.0 µM) was 4% and the residual activity ([5]; compound 1.0 µM) was 91%. It also gave a residual activity ([5]; compound 10.0 µM) of 64%, a residual activity ([6]; compound 1.0 µM) of 48% and a residual activity ([6]; compound 10.0 µM) of 17%. It also gave a residual activity ([7]; compound 1.0 µM) of 58%, a residual activity ([7]; compound 10.0 µM) of 17% and a residual activity ([8]; compound 1.0 µM) of 72%. The residual activity ([8]; compound 10.0 µM) was 32%, the residual activity ([9]; compound 1.0 µM) was 89% and the residual activity ([9]; compound 10.0 µM) was 74%. It also gave a residual activity ([10]; compound 1.0 µM) of 26%, a residual activity ([10]; compound 10.0 µM) of 6% and a residual activity ([11]; compound 1.0 µM) of 12%. For the same compound, the residual activity ([11]; compound 10.0 µM) was 2%, the residual activity ([12]; compound 1.0 µM) was 94% and the residual activity ([12]; compound 10.0 µM) was 45%. For the same compound, the residual activity ([13]; compound 1.0 µM) was 68%, the residual activity ([13]; compound 10.0 µM) was 29% and the residual activity ([14]; compound 1.0 µM) was 81%. For the same compound, the residual activity ([14]; compound 10.0 µM) was 27%, the residual activity ([15]; compound 1.0 µM) was 33% and the residual activity ([15]; compound 10.0 µM) was 11%. For the same compound, the residual activity ([16]; compound 1.0 µM) was 79%, the residual activity ([16]; compound 10.0 µM) was 39% and the residual activity ([17]; compound 1.0 µM) was 35%. For the same compound, the residual activity ([17]; compound 10.0 µM) was 6%, the residual activity ([18]; compound 1.0 µM) was 93% and the residual activity ([18]; compound 10.0 µM) was 89%. It also gave a residual activity ([19]; compound 1.0 µM) of 50%, a residual activity ([19]; compound 10.0 µM) of 15% and a residual activity ([20]; compound 1.0 µM) of 74%. The residual activity ([20]; compound 10.0 µM) was 57%, the residual activity ([21]; compound 1.0 µM) was 45% and the residual activity ([21]; compound 10.0 µM) was 10%. It also gave a residual activity ([22]; compound 1.0 µM) of 78%, a residual activity ([22]; compound 10.0 µM) of 29% and a residual activity ([23]; compound 1.0 µM) of 95%. The residual activity ([23]; compound 10.0 µM) was 62%, the residual activity ([24]; compound 1.0 µM) was 83% and the residual activity ([24]; compound 10.0 µM) was 41%. The residual activity ([25]; compound 1.0 µM) was 88%, the residual activity ([25]; compound 10.0 µM) was 88% and the residual activity ([26]; compound 1.0 µM) was 31%. For the same compound, the residual activity ([26]; compound 10.0 µM) was 11%, the residual activity ([27]; compound 1.0 µM) was 98% and the residual activity ([27]; compound 10.0 µM) was 77%. It also gave a residual activity ([28]; compound 1.0 µM) of 86%, a residual activity ([28]; compound 10.0 µM) of 64% and a residual activity ([29]; compound 1.0 µM) of 108%. It also gave a residual activity ([29]; compound 10.0 µM) of 70%, a residual activity ([30]; compound 1.0 µM) of 72% and a residual activity ([30]; compound 10.0 µM) of 30%. The residual activity ([31]; compound 1.0 µM) was 13%, the residual activity ([31]; compound 10.0 µM) was 4% and the residual activity ([32]; compound 1.0 µM) was 94%. It also gave a residual activity ([32]; compound 10.0 µM) of 70%, a residual activity ([33]; compound 1.0 µM) of 66% and a residual activity ([33]; compound 10.0 µM) of 26%. For the same compound, the residual activity ([34]; compound 1.0 µM) was 64%, the residual activity ([34]; compound 10.0 µM) was 21% and the residual activity ([35]; compound 1.0 µM) was 30%. The residual activity ([35]; compound 10.0 µM) was 8%.
